Laboratory results published in article PMC12064818, “A general assay platform to study protein pharmacology using ligand-dependent structural dynamics” (Nature Communications, 2025).
Read-outs that look alike come from different tables or passages of the source.

What was measured:
[1] = biological target: FLuc-C-HiBiT (firefly luciferase) (Photinus pyralis, UniProt P08659, form not given/L550V); experiment: SDR assay, FLuc-C-HiBiT; settings: SDR max. response, clade S
[2] = biological target: FLuc-C-NLuc (firefly luciferase) (Photinus pyralis, UniProt P08659, form not given/L550V); experiment: SDR assay, FLuc-C-NLuc; settings: - ATP
Chain of FLuc-C-NLuc (firefly luciferase) (P08659 2-550 L550V, form open): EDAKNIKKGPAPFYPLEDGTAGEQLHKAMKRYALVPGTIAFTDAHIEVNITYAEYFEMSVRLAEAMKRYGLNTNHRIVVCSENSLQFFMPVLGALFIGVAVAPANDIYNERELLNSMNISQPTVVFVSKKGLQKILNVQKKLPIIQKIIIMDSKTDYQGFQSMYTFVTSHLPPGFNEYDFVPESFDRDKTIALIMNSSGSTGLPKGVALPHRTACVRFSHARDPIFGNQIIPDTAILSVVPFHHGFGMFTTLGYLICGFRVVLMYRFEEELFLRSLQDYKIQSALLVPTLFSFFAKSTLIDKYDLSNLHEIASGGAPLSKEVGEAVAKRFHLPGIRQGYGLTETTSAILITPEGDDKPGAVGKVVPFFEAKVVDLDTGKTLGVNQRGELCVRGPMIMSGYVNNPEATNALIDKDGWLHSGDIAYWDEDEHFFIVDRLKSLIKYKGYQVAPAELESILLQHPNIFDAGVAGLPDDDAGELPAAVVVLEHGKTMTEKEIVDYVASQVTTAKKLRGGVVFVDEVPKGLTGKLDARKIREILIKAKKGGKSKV

[3] = biological target: T1, NLuc (Oplophorus gracilirostris, UniProt Q9GV45, A31E/A60N/A81I/F95D/I117V/K70R/L54V/L99Q/M102K/N193R/P142E/Q151K/Q38R/Q45L/V71I/Y165I); format: biochemical; settings: - ATP
T1 construct: His tag (inferred from IMAC purification); made in house; host or cells: E. coli
T1 sequence (Q9GV45 other isoform, or with tags, fused parts or gaps with the stated changes): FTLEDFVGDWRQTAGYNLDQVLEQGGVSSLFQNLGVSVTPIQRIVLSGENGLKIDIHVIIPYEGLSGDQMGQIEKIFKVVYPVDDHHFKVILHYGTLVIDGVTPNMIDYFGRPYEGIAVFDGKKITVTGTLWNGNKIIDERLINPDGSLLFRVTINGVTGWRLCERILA
Outline: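 Test compounds added to 1 nM NLuc in PBS with 0.05% IGEPAL, ± ATP. Nano-Glo reagent added and incubated 10 min before luminescence read.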

[4] = biological target: P. pyralis FLuc (Photinus pyralis, UniProt P08659); experiment: FLuc enzymatic luminescence assay, P. pyralis FLuc; format: biochemical; settings: FLuc enzymatic assay; for IC50: read-out: IC50 or SDR50 (mM) FLuc E
Chain of P. pyralis FLuc (P08659 whole entry): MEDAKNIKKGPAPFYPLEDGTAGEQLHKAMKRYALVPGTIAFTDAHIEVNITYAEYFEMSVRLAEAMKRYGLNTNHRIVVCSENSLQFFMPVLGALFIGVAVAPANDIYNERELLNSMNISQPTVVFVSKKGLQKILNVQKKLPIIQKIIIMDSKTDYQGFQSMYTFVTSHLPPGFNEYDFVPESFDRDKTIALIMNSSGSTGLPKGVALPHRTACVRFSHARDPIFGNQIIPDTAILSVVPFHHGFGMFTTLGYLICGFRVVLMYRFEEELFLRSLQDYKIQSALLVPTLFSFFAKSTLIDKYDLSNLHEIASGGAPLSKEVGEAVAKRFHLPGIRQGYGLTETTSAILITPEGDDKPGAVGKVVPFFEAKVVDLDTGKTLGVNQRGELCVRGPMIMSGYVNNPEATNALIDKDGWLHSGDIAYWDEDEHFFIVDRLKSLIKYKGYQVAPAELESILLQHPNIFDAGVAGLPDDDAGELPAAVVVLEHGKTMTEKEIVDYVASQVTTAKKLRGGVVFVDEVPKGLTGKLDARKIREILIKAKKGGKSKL
Outline: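 Runs with and without 10 µM ATP: compounds were pre-incubated with FLuc (1–10 nM, PBS pH 7.4) at ambient temperature, light-protected, for 30–60 min. Luminescence was imaged 5 min after adding 10 µM D-luciferin (final). Inhibition was scaled between DMSO neutral and no-enzyme controls.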

Chain of FLuc-C-HiBiT (firefly luciferase) (P08659 2-550 L550V, form open): as the sequence (P08659 2-550 L550V, form open) above

SMILES | % Activity (max response, + ATP) [1] [%] | % Activity (max response, - ATP) [1] [%] | Efficacy (%) FLuc-C-NLuc SDR (-ATP) [2] [%] | Efficacy (%) NLuc (- ATP) [3] [%] | Efficacy (%) FLuc E ([4]; Clade S follow-up) [%] | pIC50 or pSDR50 FLuc E ([4]; Clade S follow-up) | IC50 ([4]; Clade S follow-up) [mM] | pIC50 or pSDR50 FLuc E [4] | IC50 [4] [mM]
CCc1ccc(NC(=O)C2CCN(C(=O)c3ncn4c3COC(c3ccc(F)cc3)C4)CC2)cc1 (stereo not shown) [NCGC00449925-01] | 47.34 | 0.00 | 0.00 | 0.00 | -32.74 | 4.96 | 0.0111 |  | 
Cc1ccc(C2Cn3cnc(C(=O)N4CCC(C(=O)NC(C)c5ccccc5)CC4)c3CO2)cc1 (stereo not shown) [NCGC00449895-01] | 100.93 | 0.00 | 0.00 | -8.50 | -61.76 | 4.96 | 0.0111 |  | 
Cc1ccc(NC(=O)C2CCN(C(=O)c3ncn4c3COC(c3ccccc3)C4)CC2)cc1C (stereo not shown) [NCGC00449904-01] | 306.70 | 0.00 | 0.00 | 0.00 | -72.15 | 5.01 | 0.00988 |  | 
O=C(NC1CCCCC1)C1CCN(C(=O)c2ncn3c2COC(c2ccc(Cl)cc2)C3)CC1 (stereo not shown) [NCGC00449844-01] | 33.25 | 0.00 | 0.00 | 0.00 | -39.79 | 4.96 | 0.0111 |  | 
O=C(NCCc1ccccc1)C1CCN(C(=O)c2ncn3c2COC(c2ccc(F)cc2)C3)CC1 (stereo not shown) [NCGC00449826-01] | 27.00 | 0.00 | 0.00 | 0.00 | -26.42 |  |  |  | 
COc1ccc(C2Cn3cnc(C(=O)N4CCC(C(=O)NC5CCCC5)CC4)c3CO2)cc1 (stereo not shown) [NCGC00449859-01] | 0.00 | 0.00 | 0.00 | 0.00 | 0.00 |  |  |  | 
O=C(NCc1ccc(F)cc1)C1CCN(C(=O)c2ncn3c2COC(c2ccccc2)C3)CC1 (stereo not shown) [NCGC00449784-01] | 341.35 | 0.00 | 0.00 | 0.00 | -93.60 |  |  | 5.26 | 0.00555
O=C(NCCc1ccccc1)C1CCN(C(=O)c2ncn3c2COC(c2ccc(Cl)cc2)C3)CC1 (stereo not shown) [NCGC00449854-01] | 0.00 | 0.00 | 0.00 | 0.00 | -25.47 |  |  |  | 
Cc1ccc(C2Cn3cnc(C(=O)N4CCC(C(=O)NCc5cc(F)ccc5F)CC4)c3CO2)cc1 (stereo not shown) [NCGC00449900-01] | 59.08 | 0.00 | 0.00 | 0.00 | -40.44 | 4.96 | 0.0111 |  | 
Cc1ccc(NC(=O)C2CCN(C(=O)c3ncn4c3COC(c3ccc(F)cc3)C4)CC2)c(F)c1 (stereo not shown) [NCGC00449944-01] | 140.99 | 7.55 | 0.00 | 0.00 | -69.67 | 4.96 | 0.0111 |  | 
Cc1ccc(C2Cn3cnc(C(=O)N4CCC(C(=O)NC5CCCC5)CC4)c3CO2)cc1 (stereo not shown) [NCGC00449881-01] | 73.27 | 0.00 | 0.00 | 0.00 | -51.50 | 4.96 | 0.0111 |  | 
CC(NC(=O)C1CCN(C(=O)c2ncn3c2COC(c2ccc(F)cc2)C3)CC1)c1ccccc1 (stereo not shown) [NCGC00449824-01] | 0.00 | 0.00 | 0.00 | 0.00 | -12.35 |  |  |  | 
COc1ccc(C2Cn3cnc(C(=O)N4CCC(C(=O)NCC5CC5)CC4)c3CO2)cc1 (stereo not shown) [NCGC00449873-01] | 0.00 | 0.00 | 0.00 | 0.00 | 0.00 |  |  |  | 
Cc1ccc(C2Cn3cnc(C(=O)N4CCC(C(=O)NC5CCCCC5)CC4)c3CO2)cc1 (stereo not shown) [NCGC00449882-01] | 52.31 | 0.00 | 0.00 | 0.00 | -33.56 | 4.91 | 0.0124 |  | 
COc1ccc(CNC(=O)C2CCN(C(=O)c3ncn4c3COC(c3ccc(C)cc3)C4)CC2)cc1 (stereo not shown) [NCGC00449887-01] | 80.81 | 0.00 | 0.00 | 0.00 | -38.46 | 4.96 | 0.0111 |  | 
COc1ccc(C2Cn3cnc(C(=O)N4CCC(C(=O)NC5CCCCCC5)CC4)c3CO2)cc1 (stereo not shown) [NCGC00449862-01] | 0.00 | 0.00 | 0.00 | -12.50 | 0.00 |  |  |  | 
O=C(NCCC1=CCCCC1)C1CCN(C(=O)c2ncn3c2COC(c2ccc(Cl)cc2)C3)CC1 (stereo not shown) [NCGC00449848-01] | 23.50 | -6.50 | 0.00 | 0.00 | -32.57 | 4.91 | 0.0124 |  | 
O=C(NCc1ccccc1Cl)C1CCN(C(=O)c2ncn3c2COC(c2ccccc2)C3)CC1 (stereo not shown) [NCGC00449786-01] | 336.94 | 0.00 | 0.00 | 15.00 | -73.36 |  |  | 5.01 | 0.00988
O=C(Nc1ccc(F)c(F)c1)C1CCN(C(=O)c2ncn3c2COC(c2ccc(F)cc2)C3)CC1 (stereo not shown) [NCGC00449940-01] | 125.80 | 0.00 | 0.00 | 0.00 | -73.07 | 4.96 | 0.0111 |  | 
O=C(NC1CCCCCCC1)C1CCN(C(=O)c2ncn3c2COC(c2ccc(Cl)cc2)C3)CC1 (stereo not shown) [NCGC00449847-01] | 0.00 | 0.00 | 0.00 | 0.00 | -17.30 |  |  |  | 
CCc1ccc(NC(=O)C2CCN(C(=O)c3ncn4c3COC(c3ccccc3)C4)CC2)cc1 (stereo not shown) [NCGC00449907-01] | 288.22 | 0.00 | 0.00 | 0.00 | -99.55 | 5.16 | 0.00699 |  | 
